This passage reports EC50 and AC50 results from ChEMBL document CHEMBL1201862, “PubChem BioAssay data set” (2004).

Targets include Cytochrome P450 2D6 (Homo sapiens, UniProt P10635); Cytochrome P450 3A4 (Homo sapiens, UniProt P08684); Cytochrome P450 2C9 (Homo sapiens, UniProt P11712).
The target of experiment [1] is T1, Corticotropin-releasing factor receptor 2/Corticotropin-releasing factor-binding protein (Homo sapiens, UniProt P24387+Q13324).
T1 sequence (Q13324 whole entry): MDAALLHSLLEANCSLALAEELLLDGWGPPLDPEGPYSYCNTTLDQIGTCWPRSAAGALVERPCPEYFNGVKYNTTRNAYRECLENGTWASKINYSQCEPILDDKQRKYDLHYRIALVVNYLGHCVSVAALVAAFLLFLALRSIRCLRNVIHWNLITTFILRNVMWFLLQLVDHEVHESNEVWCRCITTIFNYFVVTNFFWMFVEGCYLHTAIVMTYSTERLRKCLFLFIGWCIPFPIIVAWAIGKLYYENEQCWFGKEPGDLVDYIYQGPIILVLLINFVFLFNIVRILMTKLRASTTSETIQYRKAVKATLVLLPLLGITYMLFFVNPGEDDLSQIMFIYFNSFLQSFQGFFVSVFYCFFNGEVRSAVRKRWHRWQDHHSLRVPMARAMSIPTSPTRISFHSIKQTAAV
T1 sequence (P24387 whole entry): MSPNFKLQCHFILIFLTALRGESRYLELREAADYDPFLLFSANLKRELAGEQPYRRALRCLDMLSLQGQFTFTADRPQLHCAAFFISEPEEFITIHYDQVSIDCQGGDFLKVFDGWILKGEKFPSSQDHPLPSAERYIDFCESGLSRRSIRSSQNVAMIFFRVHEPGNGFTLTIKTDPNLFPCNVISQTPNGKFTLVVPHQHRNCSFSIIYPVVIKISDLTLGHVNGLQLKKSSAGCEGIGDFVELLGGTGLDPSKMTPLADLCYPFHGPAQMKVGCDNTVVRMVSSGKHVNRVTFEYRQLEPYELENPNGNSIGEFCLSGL
The experiment in a line: activators of CRF receptor 2 with binding protein – uHTS hits, confirmation (AID 602473). The experiment is classed as functional. The settings on record: read-out: EC50_Mean.

The subject of a further experiment is INS1. Description: beta cell apoptosis inhibitors, cytokine rescue, dose response, luminescence, retest (AID 449756).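 Note: cell death triggered by IL-1 beta plus TNF-alpha plus IFN-gamma mixture; protective hits raise ATP signal compared with cytokine alone wells.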 The experiment is classed as functional, cell-based. The settings on record: Rattus norvegicus.
Experiment [2] in a line: inhibitors of intracellular T. cruzi replication, confirmation, NIH3T3 host cells, beta-gal luminescence (AID 2044).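 Note: intracellular parasites grown in NIH/3T3 mouse fibroblasts as host cells; luminescent beta-galactosidase reporter signal from transgenic T. cruzi replicating inside host cells; inhibitors lower the luminescence signal.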 The experiment is classed as functional, cell-based.
The nature of experiment [3]: cytotoxicity toward NIH3T3 fibroblasts, dose response, counter-screen, cell-based, ATP luminescence, mouse fibroblasts (AID 2010).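 Note: cells exposed to compound for about 90 hours before reading.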 Format: functional. For orientation: Counterscreens check selectivity or assay interference.
Another experiment concerns the target Cytochrome P450 2C19 (Homo sapiens, UniProt P33261). The experiment in a line: Cytochrome panel assay with activity outcomes. Panel member name: p450-cyp2c19 Compounds with AC50 equal or less than 10 uM are considered active. Format: functional. The note with it: read-out: AC50.
For the next experiment, the target named is T2, Cytochrome P450 1A2 (Homo sapiens, UniProt P05177).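 Note: PubChem cytochrome P450 panel assay, CYP1A2 panel member.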
T2 sequence (P05177 whole entry): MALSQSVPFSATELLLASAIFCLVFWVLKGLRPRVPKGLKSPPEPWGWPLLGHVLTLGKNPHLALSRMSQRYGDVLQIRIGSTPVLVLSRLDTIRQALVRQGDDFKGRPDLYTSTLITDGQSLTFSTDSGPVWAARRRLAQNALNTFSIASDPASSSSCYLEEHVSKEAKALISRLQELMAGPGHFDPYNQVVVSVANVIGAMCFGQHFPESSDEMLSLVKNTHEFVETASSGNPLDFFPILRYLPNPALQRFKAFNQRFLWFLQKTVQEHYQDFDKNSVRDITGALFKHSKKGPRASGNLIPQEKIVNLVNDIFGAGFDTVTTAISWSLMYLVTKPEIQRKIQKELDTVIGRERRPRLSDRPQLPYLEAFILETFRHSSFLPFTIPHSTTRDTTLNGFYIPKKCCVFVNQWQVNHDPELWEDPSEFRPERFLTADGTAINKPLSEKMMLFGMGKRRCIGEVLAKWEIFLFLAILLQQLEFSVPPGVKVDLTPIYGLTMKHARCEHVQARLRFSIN

Experiment [4] is described as follows: NIH-3T3 fibroblast cytotoxicity, dose response, cytotoxicity control, cell-based, fluorescence, Alamar Blue, secondary assay (AID 2327).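 Note: NIH-3T3 mouse fibroblasts cultured with fluconazole at 8 µg/mL.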 The experiment is classed as functional.
Experiment [5] can be described thus: Luminescence Cell-Based Dose Response HTS to Identify Activators of Luciferase Translation or Activity in H4 […] Cells. [Related pubchem assays: 1829 (Project Summary), 1814 (Primary HTS)]. The experiment is classed as functional.
The test system of another experiment is H4. Description: Luminescence Cell-Based Dose Response HTS to Identify Activators of 5'UTR Stem-Loop Driven Prion Protein mRNA Translation in H4 Neuroglioblastoma Cells. [Related pubchem assays: 1829 (Project Summary), 1814 (Primary HTS)]. Format: functional. The note with it: Homo sapiens.

Calls of active or inactive are those of the source.

Cytochrome P450 2D6, sequence (P10635 whole entry): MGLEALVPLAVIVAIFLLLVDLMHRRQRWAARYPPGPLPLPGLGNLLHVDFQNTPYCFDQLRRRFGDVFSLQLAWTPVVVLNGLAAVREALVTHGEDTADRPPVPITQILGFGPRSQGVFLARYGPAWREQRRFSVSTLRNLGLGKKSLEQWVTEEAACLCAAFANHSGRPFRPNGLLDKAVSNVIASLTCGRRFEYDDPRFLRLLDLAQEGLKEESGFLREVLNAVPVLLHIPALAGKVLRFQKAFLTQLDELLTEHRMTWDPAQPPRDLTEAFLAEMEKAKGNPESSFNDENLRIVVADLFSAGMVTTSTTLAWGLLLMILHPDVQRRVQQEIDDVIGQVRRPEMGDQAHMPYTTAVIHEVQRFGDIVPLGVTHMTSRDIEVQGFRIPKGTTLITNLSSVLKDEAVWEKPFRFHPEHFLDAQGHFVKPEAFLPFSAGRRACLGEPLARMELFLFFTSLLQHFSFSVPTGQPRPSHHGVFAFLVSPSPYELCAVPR
Cytochrome P450 3A4, sequence (P08684 whole entry): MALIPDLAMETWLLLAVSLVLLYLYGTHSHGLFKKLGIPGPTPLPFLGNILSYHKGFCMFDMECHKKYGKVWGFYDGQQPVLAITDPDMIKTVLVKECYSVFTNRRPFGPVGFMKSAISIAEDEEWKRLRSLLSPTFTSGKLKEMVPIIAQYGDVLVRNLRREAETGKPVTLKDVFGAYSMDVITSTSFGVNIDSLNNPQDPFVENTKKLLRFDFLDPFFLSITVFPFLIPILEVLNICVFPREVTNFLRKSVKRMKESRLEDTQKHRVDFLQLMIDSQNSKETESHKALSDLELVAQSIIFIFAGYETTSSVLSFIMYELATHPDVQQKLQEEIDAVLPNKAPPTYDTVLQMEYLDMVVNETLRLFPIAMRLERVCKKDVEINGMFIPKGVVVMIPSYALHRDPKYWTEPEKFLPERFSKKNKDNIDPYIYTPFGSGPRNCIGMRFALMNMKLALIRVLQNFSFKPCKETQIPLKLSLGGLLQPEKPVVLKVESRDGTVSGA
Cytochrome P450 2C19, sequence (P33261 whole entry): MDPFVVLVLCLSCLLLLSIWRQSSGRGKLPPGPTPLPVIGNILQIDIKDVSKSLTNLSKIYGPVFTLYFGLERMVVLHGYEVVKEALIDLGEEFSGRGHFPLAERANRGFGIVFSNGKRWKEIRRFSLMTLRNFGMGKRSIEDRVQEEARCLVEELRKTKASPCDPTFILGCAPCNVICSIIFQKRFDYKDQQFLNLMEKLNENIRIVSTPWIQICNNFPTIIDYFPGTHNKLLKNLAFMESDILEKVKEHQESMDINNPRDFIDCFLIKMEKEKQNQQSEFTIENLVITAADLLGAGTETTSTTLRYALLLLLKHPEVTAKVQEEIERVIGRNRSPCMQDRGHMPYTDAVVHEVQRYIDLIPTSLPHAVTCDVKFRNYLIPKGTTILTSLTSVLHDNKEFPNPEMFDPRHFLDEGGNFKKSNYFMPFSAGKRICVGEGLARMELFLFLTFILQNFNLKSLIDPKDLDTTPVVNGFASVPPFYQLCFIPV
Cytochrome P450 2C9, sequence (P11712 whole entry): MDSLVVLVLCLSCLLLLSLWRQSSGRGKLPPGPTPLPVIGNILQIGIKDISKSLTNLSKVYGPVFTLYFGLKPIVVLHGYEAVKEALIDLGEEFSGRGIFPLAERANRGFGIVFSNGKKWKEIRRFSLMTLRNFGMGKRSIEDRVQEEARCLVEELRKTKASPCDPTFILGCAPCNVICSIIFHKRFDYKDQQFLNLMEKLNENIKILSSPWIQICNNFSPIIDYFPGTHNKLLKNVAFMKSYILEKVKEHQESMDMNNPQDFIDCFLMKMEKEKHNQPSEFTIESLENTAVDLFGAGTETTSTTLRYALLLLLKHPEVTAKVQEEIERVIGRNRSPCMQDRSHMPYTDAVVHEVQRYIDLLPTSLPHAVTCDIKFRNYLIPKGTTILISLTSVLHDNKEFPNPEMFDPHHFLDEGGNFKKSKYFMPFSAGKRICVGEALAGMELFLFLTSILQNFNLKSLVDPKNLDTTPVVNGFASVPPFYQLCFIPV

In the case of `N#Cc1c(-c2ccc(F)cc2)cc(C2CC2)nc1SCC(=O)c1cccs1`, the EC50 in experiment [1] is > 53 µM (inactive).

As usually defined, the AC50 is the concentration giving half of the maximal activity seen. As to `COc1ccc(C(=O)C/C(=C\C(=O)c2ccc(C)cc2)c2ccccc2)cc1`, the AC50 in the experiment with INS1 was 7 µM (active). In addition, the EC50 was 1.93 µM (active) in experiment [2] and > 60 µM (not active) in experiment [3].

`CCOC(=O)c1sc(SC)c2c1CCC/C2=N/OC`: the AC50 in the experiment with INS1 was > 260 µM (inactive).

For the molecule `CC(C)N1CCN(c2ccncc2S(=O)(=O)N2CCCCC2)CC1`, the AC50 at Cytochrome P450 2D6 was 3.98 µM (inconclusive).

For `FC(F)(F)c1ccccc1-c1nc(N2CCOCC2)c2ccccc2n1`, the AC50 at Cytochrome P450 3A4 is 12.6 µM (inconclusive); at Cytochrome P450 2D6 it was 25.1 µM (inconclusive).

In the case of `COC(=O)C1(CC(C)C)C=C2C(=C(C(C)C)C(=O)C2C)CN1` (stereo not given), the AC50 at Cytochrome P450 3A4 is 20 µM (inconclusive); at Cytochrome P450 2C19, 25.1 µM (inconclusive); on Cytochrome P450 2D6, 25.1 µM (inconclusive); on Cytochrome P450 1A2 it was 15.8 µM (inconclusive).

Turning to `Cc1ccc(Nc2nnc(-c3ccc4c(c3)OCO4)o2)c(C)c1`, on Cytochrome P450 2C9, the AC50 was 7.94 µM (inconclusive).

As for `Cn1c(=O)c(-c2ccccc2)nc2cnc(OCc3ccccc3)nc21`, the results for the AC50 at Cytochrome P450 2C9, on Cytochrome P450 3A4 and on Cytochrome P450 2C19 were 20 µM (inconclusive), 39.8 µM (inconclusive) and 39.8 µM (inconclusive), respectively.

Consider `O=C(OCc1cccc(F)c1)c1ccc2c(c1)-c1ccccc1C2=O`, for which the AC50 at Cytochrome P450 2C9 was 10 µM (inconclusive); at Cytochrome P450 2D6, 0.355 µM (inconclusive).

Regarding `CC(=O)Nc1ccc(Sc2ncccc2C(=O)Nc2ccc(F)cc2)cn1`, the EC50 in experiment [1] was 1.97 µM (active). The half-maximal activity concentration (AC50) at Cytochrome P450 2C9 was 10 µM (inconclusive); at Cytochrome P450 3A4 it was 15.8 µM (inconclusive); on Cytochrome P450 2C19 it was 39.8 µM (inconclusive).

Consider `COc1ccc(N2CCN(C(S)=Nc3cccc(C)c3)CC2)cc1`, for which the AC50 is 0.00562 µM (inconclusive) at Cytochrome P450 2C9 and 2.24 µM (inconclusive) on Cytochrome P450 3A4.

In the case of `O=C1CC[C@](CCc2nc3ccccc3[nH]2)(c2ccccc2)C(=O)N1`, on Cytochrome P450 2D6, the AC50 is 2.51 µM (inconclusive).

Turning to `CCN(CC)CCOC(=O)c1c(C)n(C)c2ccc(OC)cc12`, the AC50 on Cytochrome P450 2C19 was 39.8 µM (inconclusive); at Cytochrome P450 2D6, 28.2 µM (inconclusive).

Regarding `COCCCNC(=O)[C@H]1N2C(=O)c3ccccc3C2SC1(C)C` (stereo not given in full), in experiment [1], the EC50 is > 53 µM (inactive).

For `O=C(c1ccncc1)N1CCC2(CCN(Cc3ccncc3)CC2)CC1`, the AC50 is 20 µM (inconclusive) on Cytochrome P450 2C9, 15.8 µM (inconclusive) at Cytochrome P450 3A4 and 25.1 µM (inconclusive) at Cytochrome P450 2D6.

Turning to `COc1ccc(C(=O)N2CCC3(CCCN(Cc4ccncc4)C3)CC2)cc1`, the AC50 on Cytochrome P450 2D6 is 12.6 µM (inconclusive).

On to `COc1ccc(O[C@H]2C=C[C@@H](c3ccccc3)O[C@H]2COC(=O)CC/C(C)=N\O[C@@H](C)CN2CCCc3nc(C)c(C)cc32)cc1`, for which the AC50 at Cytochrome P450 2C9 is 3.98 µM (inconclusive).

For the molecule `Cc1ccc(S(=O)(=O)N/N=C/c2ccc(OC3CSC3)cc2)cc1`, the EC50 in experiment [1] was 5.51 µM (active). For the same molecule, at Cytochrome P450 2C19, the AC50 was 4.47 µM (inconclusive).

Consider `COc1ccc(-c2cc(-c3c(O)c(OC)c4occc4c3OC)[nH]n2)cc1`, for which the EC50 in experiment [4] is 25.8 µM (active).

As for `COc1ccc(Oc2nnc(C)c3ccccc23)cc1`, the values for the EC50 (in experiment [5]; in the experiment with H4) were 2.76 µM (active) and 5.97 µM (active), respectively.

In the case of `Cc1cccc(NC(=N)Nc2nc(C)cc(C)n2)c1`, in experiment [1], the EC50 is 10.7 µM (active).

For the molecule `COc1ccc(NC(=O)C2(c3ccc(NC(=O)c4ccc(OC(C)=O)cc4)cc3)CCCC2)cc1`, the AC50 on Cytochrome P450 2C9 was 1.26 µM (inconclusive).

Consider `CCC(=O)NCCNC(=O)c1c(SC)nsc1SC`, for which the results for the AC50 at Cytochrome P450 2C9, at Cytochrome P450 2C19 and at Cytochrome P450 1A2 were 12.6 µM (inconclusive), 39.8 µM (inconclusive) and 3.16 µM (inconclusive), respectively.

For the molecule `CC(=O)Nc1ccc(C2=NN(CC#N)C(=O)SC2)cc1`, the AC50 at Cytochrome P450 2C9 was 8.91 µM (inconclusive); at Cytochrome P450 1A2, 15.8 µM (inconclusive).

On to `O=c1c(Oc2ccccc2Br)c(C(F)(F)F)oc2c(CN3CCCC3)c(O)ccc12`, for which the AC50 is 39.8 µM (inconclusive) on Cytochrome P450 2C19, 17.8 µM (inconclusive) on Cytochrome P450 2D6 and 17.8 µM (inconclusive) at Cytochrome P450 1A2.

As to `O=C(CSc1cn(Cc2ccccc2)c2ccccc12)Nc1nccs1`, the figures for the EC50 (in experiment [5]; in the experiment on H4) were 0.244 µM (active) and 5.48 µM (active), respectively.

`CSc1nnc(-c2cc3c(-c4ccccc4)nn(C)c3s2)n1C`: the results for the AC50 at Cytochrome P450 2C9, at Cytochrome P450 3A4 and at Cytochrome P450 2C19 were 3.55 µM (inconclusive), 31.6 µM (inconclusive) and 22.4 µM (inconclusive), respectively.

With `CC(=O)N1CCC2(CC1)CCN(c1ccncc1)CC2`, the AC50 on Cytochrome P450 2C9 was 25.1 µM (inconclusive).

`O=C(O)c1ccc2c(c1)C(=O)N(C(Cc1ccc(O)cc1)C(=O)O)C2=O` (stereo not given): the AC50 at Cytochrome P450 2D6 was 0.01 µM (inconclusive).

For `COc1ccc([N+](=O)[O-])cc1NC1C2CC3CC(C2)CC1C3` (stereo not given), the AC50 is 22.4 µM (inconclusive) at Cytochrome P450 2C9 and 11.2 µM (inconclusive) on Cytochrome P450 3A4.

With `Cc1ccnc(N(C(=O)Nc2ccccc2)C2=NCC(C)(C)S2)c1`, the EC50 in experiment [5] was 0.709 µM (active); in the experiment with H4, > 120 µM (not active).

As for `CC1=NN(C(=O)c2ccncc2)C(=O)[C@@H]1/N=N\c1ccc2ccccc2c1`, the AC50 on Cytochrome P450 3A4 was 3.98 µM (inconclusive); on Cytochrome P450 2C19, 3.98 µM (inconclusive); on Cytochrome P450 2D6, 3.16 µM (inconclusive).

With `CC(=O)c1ccc(NC(S)=NCCc2cccc(Cl)c2)cc1`, the EC50 in [5] was 2.64 µM (active); in the experiment with H4, > 120 µM (not active).

Turning to `COc1cccc([C@H]2Oc3ccc(OC)cc3/C(=N\OC[C@@H](O)[C@@H]3O[C@@H]4OC(C)(C)O[C@@H]4[C@H]3O)[C@@H]2O)c1`, the AC50 at Cytochrome P450 2D6 was 3.16 µM (inconclusive).

Turning to `COc1ccc2[nH]c(/C(C#N)=C\c3ccc(Oc4ccc([N+](=O)[O-])cn4)cc3)nc2c1`, in the experiment with INS1, the AC50 is 3.64 µM (active).

Regarding `Cn1c2c(c(=O)n(C)c1=O)C1(C(=O)Nc3ccccc31)C(C#N)=C(N)O2` (stereo not given), the AC50 at Cytochrome P450 3A4 is 22.4 µM (inconclusive); at Cytochrome P450 2D6, 14.1 µM (inconclusive); at Cytochrome P450 1A2 it was 25.1 µM (inconclusive).

Turning to `Cc1cccc(NC(=O)C2CCN(S(=O)(=O)c3cccc4nsnc34)CC2)n1`, the values for the AC50 on Cytochrome P450 2C9, on Cytochrome P450 2D6 and at Cytochrome P450 1A2 were 14.1 µM (inconclusive), 14.1 µM (inconclusive) and 0.0794 µM (inconclusive), respectively.

For `O=C(CNS(=O)(=O)c1cccs1)N1CCC2(CC1)OCCO2`, at Cytochrome P450 2C9, the AC50 is 39.8 µM (inconclusive).

As for `Cc1cccc(CNc2nc(-c3cccc(NS(C)(=O)=O)c3)nc3ccccc23)c1`, at Cytochrome P450 2C9, the AC50 is 0.501 µM (inconclusive).

Turning to `O=C(NCc1ccccc1)C1=C[C@H](c2csc3ccccc23)C[C@H](OCCCCO)O1`, in the experiment with INS1, the AC50 was 5.81 µM (active).
